Values after ≈ are worked out from the molar mass of the structure shown. Where a name gives a salt, the structure may show the parent alone.
Assays:
Antibody (RS2708) = test: Competitive ELISA for NBOMe based compounds (Example 13), HRP tracer vs calibrator/cross-reactant; type: binding, sheep; details: for % Cross-reactivity: IC50 25I-NBOMe.HCL/IC50 CR×100; for % CR: relative to 25I-NBOMe.HCl
Description: IgG was extracted from the antisera using ammonium sulphate/caprylic acid precipitation and the purified antibody was immobilised on a 96 well ELISA plate at 5 μg/ml in 10 mM TRIS buffer, pH 8.5 overnight at 4° C. […] The plate was washed (×3) with TBST and the calibrator (25I-NBOMe.HCL) or potential cross reactants added (50 μl per well), followed by HRP tracer (75 μl/well) to the appropriate wells. The plates were then incubated for 60 minutes at 25° C. […] 125 μL of signal (TMB) was then added to each well for 20 mins at room temperature in the dark. The reaction was stopped by the addition of 125 μl of 0.2 M Sulphuric Acid per well and the plates read immediately at 450 nm. Calibration curves were generated and these were used to determine the sensitivity and specificity of the immunoassay for 25I-NBOMe-HCL and potential cross-reactants. The data are inputted to a computer program called ‘KC Junior’ (Biotek). It gives a 4 parameter fit curve and allows the calculation of concentrations between the standard runs. This program is used to calculate the IC50 values by dividing the 0 ng/ml optical density (OD) value by 2 and obtaining the concentration value from the curve for this OD. The results of this study are presented in Tables 1-3, cross-reactivity being calculated according to the following formula: % CR=IC50 25I-NBOMe.HCL/IC50 CR×100
Wherein % CR is the percentage cross-reactivity, IC50 25I-NBOMe HCL is the concentration of 25I-NBOMe-HCL which causes 50% displacement of signal and IC50 CR is the concentration of potential cross-reactant that causes 50% displacement of signal.

[1] = recreational drug use; cited from earlier work
[2] = case study of 25I-NBOMe use; cited from earlier work
[3] = Table 2, antibody coated at 5 μg/ml, HRP tracer at 1/64K

SMILES | % Cross-reactivity (Antibody (RS2708); Table 2) | IC50 (Antibody (RS2708); [3]) | further results
COc1cc(CCNCc2ccccc2O)c(OC)cc1N [25(NH2)-NBOH] | 18.5% | 0.887 ng/mL (≈ 2.93 nM) | –
COc1cc(CCNCc2ccccc2OC)c(OC)cc1C [25D-NBOMe•HCl, 2-(2,5-Dimethoxy-4-methylphenyl)-N-[(2-methoxyphenyl)methyl]ethanamine] | 157.7% | 0.104 ng/mL | –
COc1cc(SC(C)C)c(OC)cc1CCNCc1ccccc1OC [25T4-NBOMe•HCl] | 118% | 0.139 ng/mL | –
CCCSc1cc(OC)c(CCNCc2ccccc2OC)cc1OC [25T7-NBOMe•HCl] | 118% | 0.139 ng/mL | –
CCc1cc(OC)c(CCNCc2ccccc2OC)cc1OC [25E-NBOMe•HCl] | 126.2% | 0.13 ng/mL | –
COc1ccc(OC)c(CCNCc2ccccc2OC)c1 [25H-NBOMe•HCl, 2-(2,5-dimethoxyphenyl)-N-(2-methoxybenzyl)ethanamine] | 170.8% | 0.096 ng/mL | –
CCc1cc(OC)c(CCN)cc1OC [Compound 2C-E] | – | – | B/Bo (Antibody (RS2708); Table 4, samples @ 100 ng/ml): 92.2; IC50 (Antibody (RS2708); Table 4, samples @ 100 ng/ml): >100; % CR (Antibody (RS2708); Table 4, samples @ 100 ng/ml): <0.16%
COc1cc(CCNCc2ccccc2OC)c(OC)cc1I [25I-NBOMe•HCl, 2-(4-Iodo-2,5-dimethoxyphenyl)-N-[(2-methoxyphenyl)methyl] ethanamine] | 100% | 0.164 ng/mL | B/Bo (Antibody (RS2708); Conc. 0.03125 ng/ml, 0 ng/ml = 100.0): 90.2; B/Bo (Antibody (RS2708); Conc. 0.0625 ng/ml, 0 ng/ml = 100.0): 80.2; B/Bo (Antibody (RS2708); Conc. 0.125 ng/ml, 0 ng/ml = 100.0): 61.3; B/Bo (Antibody (RS2708); Conc. 0.25 ng/ml, 0 ng/ml = 100.0): 33.4; B/Bo (Antibody (RS2708); Conc. 0.5 ng/ml, 0 ng/ml = 100.0): 14.7; B/Bo (Antibody (RS2708); Conc. 1 ng/ml, 0 ng/ml = 100.0): 7.6; B/Bo (Antibody (RS2708); Conc. 2 ng/ml, 0 ng/ml = 100.0): 5.3; IC50 (Antibody (RS2708); Table 1, antibody coated at 5 μg/ml, HRP tracer at 1/64K): 0.164 ng/mL
COc1cc(CCNCc2ccccc2OC)c(OC)cc1I [Compound 25I-NBOMe, 2-(4-Iodo-2,5-dimethoxyphenyl)-N-[(2-methoxyphenyl)methyl] ethanamine] | – | – | dose [1]: less than one milligram; Clinical features [2]: tachycardia, hypertension, agitation, aggression, visual and auditory hallucinations, seizures, hyperplexia, clonus, elevated white cell count, elevated creatine kinase, metabolic acidosis and acute kidney injury
COc1cc(CCN)c(OC)cc1Br [Compound 2C-B] | – | – | B/Bo (Antibody (RS2708); Table 4, samples @ 100 ng/ml): 89.9; IC50 (Antibody (RS2708); Table 4, samples @ 100 ng/ml): >100; % CR (Antibody (RS2708); Table 4, samples @ 100 ng/ml): <0.16%
COc1cc(CCN)c(OC)cc1I [Compound 2C-I] | – | – | B/Bo (Antibody (RS2708); Table 4, samples @ 100 ng/ml): 88.8; IC50 (Antibody (RS2708); Table 4, samples @ 100 ng/ml): >100; % CR (Antibody (RS2708); Table 4, samples @ 100 ng/ml): <0.16%; dose [1]: around 20 milligrams
CCCc1cc(OC)c(CCNCc2ccccc2OC)cc1OC [25P-NBOMe•HCl] | 111.6% | 0.147 ng/mL | –
COc1cc([N+](=O)[O-])c(OC)cc1CCNCc1ccccc1OC [25N-NBOMe•HCl, N-(2-Methoxybenzyl)-2-(2,5-dimethoxy-4-nitrophenyl)ethylamine] | 115.5% | 0.142 ng/mL | –
CCSc1cc(OC)c(CCNCc2ccccc2OC)cc1OC.Cl [25T2-NBOMe•HCl] | 120.6% | 0.136 ng/mL | –
COc1ccccc1CNCCc1cc(OC)c(OC)c(OC)c1.Cl [Mescaline-NBOMe•HCl] | 164% | 0.1 ng/mL | –
COc1cc(CC(C)N)c(OC)cc1Br (stereo not shown) [DOB, 2,5-Dimethoxy-4-bromoamphetamine] | – | – | B/Bo (Antibody (RS2708); Table 4, samples @ 100 ng/ml): 91.8; IC50 (Antibody (RS2708); Table 4, samples @ 100 ng/ml): >100; % CR (Antibody (RS2708); Table 4, samples @ 100 ng/ml): <0.16%
COc1cc([N+](=O)[O-])c(OC)cc1CCNCc1ccccc1O [Compound 25N-NBOH] | 26.7% | 0.615 ng/mL (≈ 1.85 nM) | –
COc1cc(CCNCc2ccccc2OC)c(OC)cc1Br [25B-NBOMe•HCl, 2-(4-Bromo-2,5-dimethoxyphenyl)-N-[(2-methoxyphenyl)methyl]ethanamine] | 118.8% | 0.138 ng/mL | –
